Experimental data from the NIST ThermoML archive (doi:10.1021/acs.jced.5b00918).
Numbers after ± are expanded uncertainties.

Assays:
[1] = 101.33 kPa, Buoyancy - hydrostatic balance
[2] = refractive index (Na D-line) (dimensionless); settings: 101.33 kPa, Liquid, Standard Abbe refractometry

CCCCCCCCO [octan-1-ol]
mass density ([1]; 293.2 K, Liquid): 823.6 ± 0.3 kg/m3
refractive index ([2]; 293.2 K): 1.4288 ± 0.0005

CCCCC(C)=O [2-hexanone]
mass density ([1]; 293.2 K, Liquid): 811 ± 2 kg/m3
refractive index ([2]; 293.2 K): 1.40065 ± 0.00054

CCCOC(C)=O [propyl ethanoate]
mass density ([1]; 293.2 K, Liquid): 889 ± 2 kg/m3
refractive index ([2]; 293.2 K): 1.3842 ± 0.0005

Oc1ccccc1 [phenol]
mass density ([1]; 314.5 K, Liquid): 1058.1 ± 0.3 kg/m3
refractive index ([2]; 314.5 K): 1.54182 ± 0.00051

Oc1ccc(O)cc1 [1,4-benzenediol]
mass density ([1]; 293.2 K, Crystal): 1332 ± 3 kg/m3
